According to ChEMBL document CHEMBL5252594:
Calls of active or inactive are those of the source.

Experiments:
Assay type in all cases: functional, organism-based
Aedes aegypti [1] = test: Larvicidal activity against Aedes aegypti Rockefeller strain L3 Larvae assessed as mortality at 90 ug/ml measured after 48 hrs; settings: dose 90.0 µg/ml
Aedes aegypti [2] = test: Larvicidal activity against Aedes aegypti Rockefeller strain L3 Larvae assessed as mortality at 150 ug/ml measured after 24 hrs; settings: dose 150.0 µg/ml
Aedes aegypti [3] = test: Larvicidal activity against Aedes aegypti Rockefeller strain L3 Larvae assessed as mortality at 150 ug/ml measured after 72 hrs; settings: dose 150.0 µg/ml
Aedes aegypti [4] = test: Larvicidal activity against Aedes aegypti Rockefeller strain L3 Larvae assessed as mortality at 90 ug/ml measured after 72 hrs; settings: dose 90.0 µg/ml
Aedes aegypti [5] = test: Larvicidal activity against Aedes aegypti Rockefeller strain L3 Larvae assessed as mortality at 90 ug/ml measured after 24 hrs; settings: dose 90.0 µg/ml
Aedes aegypti [6] = test: Larvicidal activity against Aedes aegypti Rockefeller strain L3 Larvae assessed as mortality at 150 ug/ml measured after 48 hrs; settings: dose 150.0 µg/ml

Measured: Activity

O=C(/C=C/c1ccc(O)c(O)c1)O[C@@H]1C[C@](O)(C(=O)O)C[C@@H](OC(=O)/C=C/c2ccc(O)c(O)c2)[C@H]1O
inactive: Aedes aegypti [1] | Aedes aegypti [2] | Aedes aegypti [3] | Aedes aegypti [4] | Aedes aegypti [5] | Aedes aegypti [6]
